Measurements published in PMC6718442, “11β-Hydroxysteroid dehydrogenases control access of 7β,27-dihydroxycholesterol to retinoid-related orphan receptor γ” (Journal of Lipid Research, 2019).

Tests used:
[1] = target: T1, 11β-HSD2 (Homo sapiens, UniProt P80365); assay: Inhibition of 11β-HSD2-dependent oxidation of cortisol in HEK-293 cell lysates; assay type: biochemical; settings: for IC50: human enzyme, 50 nM cortisol, 10 min, 37°C, read-out: IC50, 11β-HSD2-dependent conversion of cortisol to cortisone
T1 construct: expressed in transfected cells
T1 sequence (P80365 1-405): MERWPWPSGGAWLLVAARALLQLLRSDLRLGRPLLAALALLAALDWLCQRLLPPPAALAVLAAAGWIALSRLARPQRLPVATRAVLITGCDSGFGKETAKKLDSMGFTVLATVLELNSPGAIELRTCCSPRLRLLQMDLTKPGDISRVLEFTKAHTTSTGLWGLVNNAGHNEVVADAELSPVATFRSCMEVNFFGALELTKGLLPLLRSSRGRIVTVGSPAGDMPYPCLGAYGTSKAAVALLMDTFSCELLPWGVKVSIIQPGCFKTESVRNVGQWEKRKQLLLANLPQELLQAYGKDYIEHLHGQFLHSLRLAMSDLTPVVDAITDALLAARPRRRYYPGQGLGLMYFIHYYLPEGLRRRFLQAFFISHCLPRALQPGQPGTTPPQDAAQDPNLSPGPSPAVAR
Protocol: (§1) 11β-HSD1 and 11β-HSD2 enzyme activities were assessed in lysates of HEK-293 cells stably expressing the respective enzyme as reported earlier ([40]). Briefly, 11β-HSD1-dependent oxoreductase activity was determined by the incubation of lysates with 200 nM of radiolabeled cortisone, 500 μM of NADPH, and the test substance or vehicle for 10 min at 37°C. 11β-HSD2-dependent oxidation of cortisol was measured instead by the addition of 50 nM of radiolabeled cortisol and 500 μM of NAD^+. The enzymatic reaction was stopped by introducing an excess amount of unlabeled cortisone and cortisol (1:1, 2 mM unlabeled each, in methanol). Cortisone and cortisol were separated using TLC and a chloroform and methanol (9:1, v/v) mixture. The bands were detected under UV light, scraped off the plate, and metabolism of the radiolabeled substrate was then evaluated by scintillation counting and the substrate conversion determined and compared with the control sample. Data (mean ± SD) were normalized to the control (DMSO) sample and obtained from at least three independent experiments.

[2] = target: T2, mouse 11β-hsd1 (Mus musculus, UniProt P50172); assay: Inhibition of murine 11β-hsd1-dependent oxoreduction of cortisone in HEK-293 cell lysates; assay type: biochemical; settings: for IC50: mouse ortholog, 200 nM cortisone, 10 min, 37°C, read-out: IC50, mouse 11β-hsd1-dependent conversion of cortisone to cortisol
T2 construct: expressed in transfected cells; host or cells: HEK-293
Protocol: as §1

[3] = target: T3, RORγ (Homo sapiens, UniProt P51449); assay: RORγ reporter gene assay in doxycycline-inducible RORγ CHO Tet-on cells transfected with 11β-HSD1/H6PDH, 11β-HSD2 or pcDNA3; assay type: cell-based; design: only weakly by 7k27OHC when full-length receptors are considered [([31]), present study]; expressed in transfected cells
T3 sequence (P51449 1-518): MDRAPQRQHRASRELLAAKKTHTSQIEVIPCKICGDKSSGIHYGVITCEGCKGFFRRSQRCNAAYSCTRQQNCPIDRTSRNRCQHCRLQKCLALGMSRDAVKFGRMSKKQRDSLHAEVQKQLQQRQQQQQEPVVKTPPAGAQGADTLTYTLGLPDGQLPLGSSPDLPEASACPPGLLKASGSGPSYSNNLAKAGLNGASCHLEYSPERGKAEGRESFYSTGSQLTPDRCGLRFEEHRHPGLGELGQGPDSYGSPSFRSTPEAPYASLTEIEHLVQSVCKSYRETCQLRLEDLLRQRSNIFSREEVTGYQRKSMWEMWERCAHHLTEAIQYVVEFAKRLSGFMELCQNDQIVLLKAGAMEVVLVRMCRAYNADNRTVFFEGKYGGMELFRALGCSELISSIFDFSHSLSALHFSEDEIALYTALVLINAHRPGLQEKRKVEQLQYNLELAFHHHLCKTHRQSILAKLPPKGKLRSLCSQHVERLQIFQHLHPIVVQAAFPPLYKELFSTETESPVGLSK
Protocol: Doxycycline-inducible RORγ CHO Tet-on cells were transfected with 11β-HSD1/H6PDH, 11β-HSD2. or pcDNA3 using the electroporation method according to the manufacturer’s protocol (Neon™ transfection system; Invitrogen). Briefly, the cells […]). Three electric pulses of 1,620 V and 10 ms were delivered to the cells using a 100 μl gold tip. Then, the cells (20,000 cells per well) were seeded in 96-well plates using culture medium without antibiotics and incubated for 16 h. The medium was replaced with medium containing charcoal-dextran stripped FBS for 1.5 h before treating the cells with different concentrations of oxysterols. After 6 h, 1.25 μM of the inverse agonist SR2211 was added to the treatment for another 2 h. To induce ROR expression, the cells were additionally subjected to 1 μM doxycycline for a further 16 h. The cells were lysed in 20 μl Tropix lysis solution supplemented with 0.5 mM dithiothreitol. RORγ-mediated activation of the luciferase reporter was measured in 10 μl lysate by adding 100 μl of D-luciferin-firefly substrate solution. Data (mean ± SD) were obtained from at least three independent experiments.

[4] = 11β-HSD2 expressing RORγ Tet-on cells

T2 sequence (P50172 whole entry): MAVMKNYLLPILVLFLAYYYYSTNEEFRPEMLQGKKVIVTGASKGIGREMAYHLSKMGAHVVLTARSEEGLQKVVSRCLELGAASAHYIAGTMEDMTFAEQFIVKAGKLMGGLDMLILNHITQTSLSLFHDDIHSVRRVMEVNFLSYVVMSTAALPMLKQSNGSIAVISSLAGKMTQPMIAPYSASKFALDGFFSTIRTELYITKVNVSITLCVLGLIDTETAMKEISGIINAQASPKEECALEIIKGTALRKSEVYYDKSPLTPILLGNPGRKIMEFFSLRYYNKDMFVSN

Row | Inhibition of human 11β-HSD2 (in words) ([1]; not shown) | Rest enzyme activity of mouse 11β-hsd1 ([2]; 1 μM test substance, data not shown) [%] | Compound | IC50 [1] [µM] | IC50 [2] [µM] | Reversal of the inhibitory effect of SR2211 on RORγ reporter (in words) [3, 4] | Reversal of the inhibitory effect of SR2211 on RORγ reporter (in words) ([3]; coexpression of RORγ with 11β-HSD1) | Effect on RORγ reporter (in words) ([3]; only control plasmid expressed, data not shown)
1 |  |  | CC(CO)CCC[C@@H](C)[C@H]1CC[C@H]2[C@@H]3C(=O)C=C4C[C@@H](O)CC[C@]4(C)[C@H]3CC[C@]12C (stereo partly shown) [7k27OHC, 7-keto,27-hydroxycholesterol] | 0.015 ± 0.001 | 0.036 ± 0.002 | weak response | capable of reversing the inhibitory effect of the RORγ antagonist, SR2211, in the same manner as 7β27OHC | 
2 | did not inhibit | ~30 | C[C@@H](CO)CCC[C@@H](C)[C@H]1CC[C@H]2[C@@H]3[C@H](O)C=C4C[C@@H](O)CC[C@]4(C)[C@H]3CC[C@]12C [7α27OHC] |  |  |  |  | same weak concentration-dependent effect as 7k27OHC
3 |  |  | CC(CO)CCC[C@@H](C)[C@H]1CC[C@H]2[C@@H]3[C@@H](O)C=C4C[C@@H](O)CC[C@]4(C)[C@H]3CC[C@]12C (stereo partly drawn) [7β27OHC, 7β,27-dihydroxycholesterol] | 0.011 ± 0.002 | 0.066 ± 0.011 | could not restore RORγ activity |  | 
